Where two headings read alike, the source gives them in different places.
What was measured:
primary cortical neurons = assay: Toxicity of drug alone in neuronal cells (Live-Dead assay); format: cell-based
Text: More specifically, primary cortical neurons were recovered from embryonic day 18 rat brains as described previously (Michaelis et al., Immunological Localization And Kinetic Characterization Of A Na+/Ca2+Exchanger In Neuronal And Nonneuronal Cells, Brain Res. 661 104-116 (1994)). Briefly, about 10 to 16 brains were removed from fetuses delivered by cesarean section, and the cortices dissected out. The neurons were isolated and suspended in DMEM/F12 supplemented with 10% FBS and plated on sterile dishes or cover slips coated with 10 μg/ml poly-D-lysine and 5 μg/ml mouse laminin. After 24 hours, the serum-containing medium was removed, and neurons were maintained in Neurobasal medium (Gibco) with 2% B-27 supplements (Gibco). Cells were maintained in culture at 37° C. in 5% CO2 and 97% humidity for 7 to 8 eight days in vitro (DIV) before use. […] Stock solutions of Aβ were prepared in sterile water at a concentration of 1.3 mM and stored at −20° C. Aliquots of the stock solutions were diluted to 1 mM in sterile 50 mM Tris-HCl, pH 7.4, and incubated at 37° C. for 24 hours to promote oligomerization of the peptides prior to treatment of the neurons. The effects of KU-1/A4, GA, Aβ, or the indicated combinations on neuronal viability were determined by monitoring cell survival using the Live-Dead assay as previously described. […] Digital images from 6 fields per dish were captured, and the number of viable (green) and dead (red) cells counted. All experiments were conducted with duplicate dishes from at least two neuronal preparations for each treatment, with about 1,000 cells analyzed/treatment condition. The data are expressed as the fraction of viable cells calculated from the total number of neurons counted under each treatment condition. The significance of differences between cultures exposed to various treatment conditions was determined using Student's t-test.

[1] = system: Hsp70 in primary cortical neurons; assay: Hsp70 up-regulation in neuronal cells (immunoblot); format: cell-based, rat
Procedure: Inhibition of Hsp90 induces overexpression of both Hsp90 and Hsp70 through dissociation of Hsp90-HSF-1 complexes and subsequent translocation of HSF-1 to the nucleus. […] Thus, in this example, an immunoblot analysis of neuronal cells was performed for Hsp70.
Primary cortical neurons were prepared as described herein. Cells were incubated (37° C. in 5% CO2) with the indicated concentrations of GA or KU-1/A4 for 24 or 48 hours. Cells were washed three times with phosphate buffered saline (PBS), followed by addition of a cell lysis buffer (50 mM Tris-HCL, 150 mM NaCl, 5 mM EDTA, 5 mM EGTA, 1% NP40, 10% Glycerol, 1 mM Na3VO4, 10 mM sodium molybdate, 40 mM NaF, and 10 ul/ml of Calbiochem protease inhibitor cocktail III). Cells were collected by scraping the dishes and aspirating all contents. […] The membranes were probed with the indicated primary HSP70 antibody (1:500, Upstate Biotechnology) and immunoreactive proteins detected using the Lumiglo Western Blot Protein Detector Kit (KPL). The immunoblots were scanned using a Kodak Image Station 2000R to determine the pixel density of the bands and imported into Photoshop and analyzed as described in Zaidi et al., Oxidative inactivation of purified plasma membrane Ca2+-ATPase by hydrogen peroxide and protection by calmodulin, Biochem. 42 12001-12010 (2003). All blots were re-probed with antibodies to β-actin I-19R (Santa Cruz) as a loading control and the data are presented as the ratio of Hsp70 to actin in each lane. Cells from at least three separate cultures for each treatment condition were examined, and the significance of differences in the immunoreactivities of the bands observed under the various treatment conditions was assessed by Student's t-test for unpaired samples.

[2] = system: primary cortical neurons exposed to Aβ25-35; assay: Protection against Aβ-induced toxicity in primary neurons (Live-Dead assay); format: cell-based, rat
Procedure: In this example, the neuroprotective effects of KU-1/A4 were determined in primary neurons derived from embryonic rat brain exposed to Aβ (10 μM) in the presence or absence of the test compound for 48 hours. The percentage of surviving neurons was determined by labeling with the fluorescent dyes calcein-AM and propidium iodide as previously described. […] The numbers of calcein-labeled live cells and propidium iodide-labeled dead neurons in several fields were visualized via fluorescence microscopy and counted as described.
Briefly, about 10 to 16 brains were removed from fetuses delivered by cesarean section, and the cortices dissected out. The neurons were isolated and suspended in DMEM/F12 supplemented with 10% FBS and plated on sterile dishes or cover slips coated with 10 μg/ml poly-D-lysine and 5 μg/ml mouse laminin. After 24 hours, the serum-containing medium was removed, and neurons were maintained in Neurobasal medium (Gibco) with 2% B-27 supplements (Gibco). Cells were maintained in culture at 37° C. in 5% CO2 and 97% humidity for 7 to 8 eight days in vitro (DIV) before use. Neurons were exposed to 0.004% DMSO or the indicated concentrations of GA or KU-1/A4 for two hours before the addition of 10 μM Aβ25-35 for either 24 or 48 hours as indicated. Stock solutions of Aβ were prepared in sterile water at a concentration of 1.3 mM and stored at −20° C. Aliquots of the stock solutions were diluted to 1 mM in sterile 50 mM Tris-HCl, pH 7.4, and incubated at 37° C. for 24 hours to promote oligomerization of the peptides prior to treatment of the neurons. The effects of KU-1/A4, GA, Aβ, or the indicated combinations on neuronal viability were determined by monitoring cell survival using the Live-Dead assay as previously described. […] Digital images from 6 fields per dish were captured, and the number of viable (green) and dead (red) cells counted. All experiments were conducted with duplicate dishes from at least two neuronal preparations for each treatment, with about 1,000 cells analyzed/treatment condition. The data are expressed as the fraction of viable cells calculated from the total number of neurons counted under each treatment condition. The significance of differences between cultures exposed to various treatment conditions was determined using Student's t-test.

[3] = system: Hsp90-dependent client protein phospho-AKT in SKBr3 breast cancer cells; assay: Degradation of phospho-AKT, Western blot in SKBr3 cells; format: cell-based; conditions: 100 μM
Procedure: Total protein concentration of each lysate was determined and equal amounts of protein were run in each lane of the gels. For the graphs shown in FIG. 1, the O.D.'s (optical density) of the Western bands for phospho-AKT were measured, as were the O.D.'s for actin probed as controls on the same blots. To obtain the graphed values, all specific O.D.'s (for Hsp90 clients) were normalized to the respective actin O.D.
Inhibition of Hsp90 results in the degradation of Hsp90-dependent clients via ubiquitination of the unfolded client followed by proteasome-mediated hydrolysis. […] Geldanamycin (GDA, 0.5 μM) was used as a positive control for Hsp90 inhibition.

With CO[C@@H]1[C@@H](O)[C@@H](O)[C@H](Oc2ccc3cc(NC(C)=O)c(=O)oc3c2)OC1(C)C [KU-1/A4, N-(7-((2R,3R,4S,5R)-3,4-dihydroxy-5-methoxy-6,6-dimethyl-tetrahydro-2H-pyran-2-yloxy)-2-oxo-2H-chromen-3-yl)acetamide] the “neurotoxicity of compound alone” value (primary cortical neurons; 100 nM (20× the EC50)) was “did not result in any observed neurotoxicity”, the “toxic effects in neuronal cells” value (primary cortical neurons; 10 μM, 72 hours) was “no toxic effects” and the “toxicity of the drug alone to neurons” value (primary cortical neurons; primary neurons, drug alone) was “no toxicity”. For the same compound, the “Hsp70 levels (ratio of Hsp70 to actin)” value ([1]; 0.2 μM, 48 hours) was “significantly increased Hsp70 levels”, the “lowest concentration leading to increases in Hsp70 levels” value ([1]; 48 hours, compared to DMSO controls) was 1 nM and the Hsp70 levels ([1]; higher concentrations (1 and 10 μM)) was “did not significantly increase Hsp70 levels”. The “lowest concentration with minor neuroprotective effects” value ([2]; Aβ 10 μM, 48 hours) was 0.5 nM, the “lowest concentration giving (significant) protection of neurons against Aβ” value ([2]; Aβ 10 μM, compound added 2 hours before, viability at 48 hours) was 5 nM and the EC50 ([2]; Rattus norvegicus, Primary cortical neuron, read-out: EC50, prevention of Aβ-induced toxicity, Aβ 10 μM, compound added 2 hours before, viability at 48 hours) was roughly 6 nM. The EC50 ([2]; read-out: EC50, prevention of Aβ-induced toxicity, Aβ 10 μM, compound added 2 hours before, viability at 48 hours) was 5 nM and the “degradation of phosphorylated AKT (Hsp90 inhibition)” value [3] was “the most potent novobiocin analogues identified”.
